In brackets after ≈: the same amount, converted by molar mass. Like-named read-outs stand apart in the source and are kept apart here. No end group written: not given here.
Legend:
[1] = system: Enterobacter aerogenes JCM 1235; test: microbe, parasite or virus in culture; format: cell-based; details: Table 4, two tests, first/second value where not identical; for MIC: Klebsiella aerogenes, JCM1235
Summary of the method: (§1)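 Broth microdilution in Mueller-Hinton broth with about 10^5 CFU/mL final inoculum, prepared from log-phase cultures adjusted to McFarland 0.5. Peptides were diluted in MHB from 128 μg/mL and incubated with cells at 37° C for 16 to 24 hours. MIC was the lowest concentration with no visible growth.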

[2] = system: Escherichia coli ATCC 25922; test: microbe, parasite or virus in culture; format: cell-based; details: for MIC: Escherichia coli, ATCC25922, read-out: MIC Escherichia coli
Summary of the method: as §1

[3] = system: Klebsiella pneumoniae JCM 1662; test: microbe, parasite or virus in culture; format: cell-based; details: for MIC: Klebsiella pneumoniae, JCM1662
Summary of the method: as §1

[4] = system: Pseudomonas aeruginosa ATCC 27853; test: microbe, parasite or virus in culture; format: cell-based; details: for MIC: Pseudomonas aeruginosa, ATCC27853, read-out: MIC Pseudomonas aeruginosa
Summary of the method: as §1

[5] = system: Staphylococcus aureus ATCC29213; test: microbe, parasite or virus in culture; format: cell-based; details: for MIC Staphylococcus aureus: ATCC29213; for MIC: Staphylococcus aureus, ATCC29213, read-out: MIC Staphylococcus aureus, Table 4, two tests, first/second value where not identical
Summary of the method: as §1

[6] = system: Staphylococcus epidermidis JCM 2414; test: microbe, parasite or virus in culture; format: cell-based; details: Table 4, two tests, first/second value where not identical; for MIC: Staphylococcus epidermidis, JCM2414, read-out: MIC Staphylococcus epidermidis
Summary of the method: as §1

[7] = system: Enterobacter cloacae JCM 1232; format: cell-based; details: Table 4; two tests, first/second value where not identical
Experimental: Bacteria (Escherichia coli ATCC 25922, Pseudomonas aeruginosa ATCC 27853, Staphylococcus aureus ATCC29213, Klebsiella pneumoniae JCM 1662, Enterobacter cloacae JCM 1232, Enterobacter aerogenes JCM 1235 and Staphylococcus epidermidis JCM 2414) were inoculated to Mueller-Hinton broth: MHB or LB medium, and cultured at a temperature and period suited for each strain. From the thus obtained colonies, each strain was inoculated to a fresh liquid medium and cultured for 16 to 20 hours. Then an aliquot having a volume (10 to 50 appropriate to each strain was inoculated to a fresh liquid medium and cultured for 4 to 6 hours, followed by the measurement of the absorbance at 600 nm. After comparing the turbidity with McFarland #0.5, the resultant was diluted with a medium. Each strain was added to about 10^5 CFU/mL (final concentration). Each of the peptide solutions to be tested was diluted with MHB to obtain a solution of 128 μg/mL. […] As controls, tobramycin (TOB: aminoglucoside antibiotic), oxacillin (OX:β-lactam antibiotic), meropenem (MEPM: carbapenem antibiotic) and ciprofloxacin (new quinolone antibiotic) were used. […] To a 96-well microtiter plate, 0.1 mL of the inoculation solution and 0.1 mL of the peptide- or positive control-containing medium having the respective concentration were added, and cultured at 37° C. for 16 to 24 hours (or a time period suited for the growth of the respective strain). The well not containing the sample was used as a negative control. After the culturing, the growth was visually observed, and the minimum concentration at which the growth was inhibited was defined as the minimum growth inhibition concentration (MIC). The medium used in this test for bacteria was Mueller-Hinton broth. Independent experiments were carried out twice or more for each strain.

[8] = system: Escherichia coli ATCC 25922; test: ATP Assay (viability at 3 hours), Table 6; format: cell-based; details: for Escherichia coli ATP (viability, relative value to negative control): 3 h, 5 μg/mL; for viability at 10 µg/mL: ATCC25922, 3 h, read-out: Escherichia coli ATP (viability, relative value to negative control)
Summary of the method: (§2)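 Log-phase bacteria at about 10^5 CFU/mL final in Mueller-Hinton broth were exposed 3 h at 37 °C to peptide (solution prepared at 10 μg/mL before 1:1 mixing with inoculum). ATP (BacTiter-Glo luminescence) relative to untreated wells defined viability; two independent experiments.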

[9] = system: Pseudomonas aeruginosa ATCC 27853; test: ATP Assay (viability at 3 hours), Table 6; format: cell-based; details: for Pseudomonas aeruginosa ATP (viability, relative value to negative control): 3 h, 5 μg/mL; for viability at 10 µg/mL: ATCC27853, 3 h, read-out: Pseudomonas aeruginosa ATP (viability, relative value to negative control)
Summary of the method: as §2

[10] = system: Staphylococcus aureus ATCC29213; test: ATP Assay (viability at 3 hours), Table 6; format: cell-based; details: for Staphylococcus aureus ATP (viability, relative value to negative control): 3 h, 5 μg/mL; for viability at 10 µg/mL: ATCC29213, 3 h, read-out: Staphylococcus aureus ATP (viability, relative value to negative control)
Summary of the method: as §2

[11] = system: Micrococcus luteus NBRC13867
[12] = system: Salmonella typhimurium JCM1652
[13] = system: Streptococcus pyogenes JCM5674
[14] = system: Acinetobacter baumanni JCM6841
[15] = system: Bacteroides fragilis JCM 11019; details: JCM 11019
[16] = system: Fusobacterium nucleatum JCM 11025
[17] = system: Trichophyton rubrum NBRC9185
[18] = system: Cryptococcus neoformans IFM 46660
[19] = system: Rhizopus oryzae NBRC 31005; details: NBRC 31005
[20] = Table 4, two tests, first/second value where not identical

| Molecule | MIC Enterobacter aerogenes [1] | MIC Escherichia coli ([2]; ATCC 25922) [µg/mL] | MIC Klebsiella pneumoniae [3, 20] | MIC Pseudomonas aeruginosa ([4]; ATCC 27853) [µg/mL] | MIC Staphylococcus aureus [5] [µg/mL] | MIC Staphylococcus epidermidis [6] | MIC Enterobacter cloacae [7] | Escherichia coli ATP (viability, relative value to negative control) [8] | Pseudomonas aeruginosa ATP (viability, relative value to negative control) [9] | Staphylococcus aureus ATP (viability, relative value to negative control) [10] | MIC Micrococcus luteus [11] [µg/mL] | MIC Streptococcus pyogenes [13] [µg/mL] | MIC Bacteroides fragilis [15] [µg/mL] | MIC Fusobacterium nucleatum ([16]; JCM 11025) [µg/mL] | MIC Trichophyton rubrum ([17]; NBRC9185) [µg/mL] | MIC Cryptococcus neoformans ([18]; IFM 46660) [µg/mL] | MIC Rhizopus oryzae [19] [µg/mL] | MIC [1] [µg/mL] | MIC [2, 20] [µg/mL] | MIC [3, 20] [µg/mL] | also measured |
| --- | --- | --- | --- | --- | --- | --- | --- | --- | --- | --- | --- | --- | --- | --- | --- | --- | --- | --- | --- | --- | --- |
| GRLKRMGKRLKRKIQKWARW-NH2 [SRP-14] | 16/32 | 16 | 16/128 | 16 | 16 | 8/16 | 32/128 | 1.2 | 1.0 | 0.3 | 4 | 16 | 128 | 4 | 32 | 1 | 8 | – | – | – | MIC Salmonella Typhimurium [12, 20]: 4/8; MIC Acinetobacter baumanni ([14]; JCM6841): 64 µg/mL |
| NC[C@H]1O[C@H](O[C@H]2[C@H](O)[C@@H](O[C@H]3O[C@H](CO)[C@@H](O)[C@H](N)[C@H]3O)[C@H](N)C[C@@H]2N)[C@H](N)C[C@@H]1O [tobramycin, reference compound] | – | – | – | – | – | – | – | – | – | – | – | – | – | – | – | – | – | < 4000 | 0.25 to 1 (≈ 0.535 to 2.14 µM) | < 4000 | MIC [4, 20]: 0.25 to 1 µg/mL (≈ 0.535 to 2.14 µM); MIC [5]: 0.12 to 1 µg/mL (≈ 0.257 to 2.14 µM); MIC [6]: 0.12 to 1 µg/mL (≈ 0.257 to 2.14 µM); viability at 10 µg/mL [8]: 74.3%; viability at 10 µg/mL [9]: 1.2%; viability at 10 µg/mL [10]: 6.7% |
| KLIFLHRLKRELRKRLKRKLR-NH2 [SRP-13] | 16/64 | – | – | 16 | 32 | 4/8 | 32/64 | 2.2 | 2.2 | 2.0 | 2 | 32 | 64 | 4 | – | 2 | 8 | – | – | – | MIC Escherichia coli [2, 20]: 16/32; MIC Klebsiella pneumoniae ([3]; JCM 1662): 32 µg/mL; MIC Salmonella Typhimurium ([12]; JCM1652): 4 µg/mL; MIC Acinetobacter baumanni [14, 20]: 16/32; MIC Trichophyton rubrum [17, 20]: 128/64 |
| LIFLHRLKRMRKRLKRKLRL-NH2 [SRP-12] | 32/64 | 32 | – | – | 16 | 4/8 | 128< mg/mL | 6.5 | 1.0 | 0.2 | – | – | – | – | – | 1 | 8 | – | – | – | MIC Klebsiella pneumoniae ([3]; JCM 1662): 128 µg/mL; MIC Pseudomonas aeruginosa [4, 20]: 16/32 |
| KNLRRIIRKIIHIIKKYG-NH2 [Ovispirin-1, reference compound] | 16/32 | – | 8/16 | – | 16 | 8/16 | 32/64 | – | – | – | 2 | 32 | 1 | – | 64 | – | > 128 | – | – | – | MIC Escherichia coli [2, 20]: 8/16; MIC Pseudomonas aeruginosa [4, 20]: 16/32; MIC Salmonella Typhimurium ([12]; JCM1652): 16 µg/mL; MIC Acinetobacter baumanni [14, 20]: 4/8; MIC Fusobacterium nucleatum [16, 20]: 2/4; MIC Cryptococcus neoformans [18, 20]: 2/4 |
| C[C@@H](O)[C@H]1C(=O)N2C(C(=O)O)=C(S[C@@H]3CN[C@H](C(=O)N(C)C)C3)[C@H](C)[C@H]12 [meropenem, reference compound] | – | – | – | – | – | – | – | – | – | – | – | – | – | – | – | – | – | < 4000 | 0.008 to 0.06 (≈ 0.0209 to 0.156 µM) | < 4000 | MIC [4, 20]: 0.25 to 1 µg/mL (≈ 0.652 to 2.61 µM); MIC [5]: 0.03 to 0.12 µg/mL (≈ 0.0782 to 0.313 µM); MIC [6]: 0.03 to 0.12 µg/mL (≈ 0.0782 to 0.313 µM); viability at 10 µg/mL [8]: 15.3%; viability at 10 µg/mL [9]: 16.1%; viability at 10 µg/mL [10]: 15.7% |

— patent US8470765B2, “Polypeptides and antibacterial or antiseptic use of same” (AnGes MG, Inc., priority 2009, dated 2013)
